According to patent US20160193148A1, “LIPOSOMAL FORMULATIONS FOR THE TREATMENT OF BACTERIAL INFECTIONS” (UNIVERSITY OF GEORGIA RESEARCH FOUNDATION, INC., priority 2013, published 2016):

Experiment: Repeated dose IV LG or FG: gentamicin in plasma, BAL cells and urine of foals
Protocol: Each dose was diluted in 250 ml of sterile 0.9% saline and administered over 15 minutes via an indwelling 14 G catheter placed in a jugular vein. Blood samples for plasma separation and measurement of gentamicin concentrations were obtained on day 1 and on day 7 at the times listed for study 1. Bronchoalveolar lavage fluid was collected 2, 6 and 24 hours after the end of infusion on day 7. Urine was collected the day prior to the first drug dose (day 0) and again 2 hours after the end of the infusion on days 3 and 7. Foals were sedated with xylazine hydrochloride (1.1 mg/kg bwt IV) and anesthetized with ketamine (2.2 mg/kg bwt IV) to allow passage of a urinary catheter using aseptic techniques. Urinalysis was performed and urine and concurrently obtained plasma samples were submitted for measurement of creatinine, γ-glutamyltransferase (GGT), protein, calcium, chloride, magnesium, sodium, and potassium concentrations. Fractional excretion of electrolytes, urinary GGT to creatinine ratio, and urinary protein to creatinine ratios were calculated. Prior to analysis for gentamicin concentration by LC-MS, urine and plasma samples were centrifuged at 400×g for 10 minutes and the supernatant was frozen at −80° C. until assayed.
A 10 mm diameter, 2.4 m BAL catheter^k was passed via nasal approach until wedged into a bronchus. The lavage solution consisted of 4 aliquots of 60 ml 0.9% saline solution infused and instantly aspirated. Immediately upon collection, the total volume of BAL fluid recovered was measured and a 3 ml aliquot saved in an EDTA tube from which total nucleated cell count was determined by use of a cell counter.^1 BAL fluid was immediately centrifuged at 400×g for 10 min. The BAL cells in the resultant pellet were washed, re-suspended in 500 μl of acetonitrile: 0.2% formic acid (1:1, v/v), vortexed, and frozen at −80° C. until assayed. Supernatant BAL fluid was also frozen at −80° C. until assayed. Before assaying, the cell pellet samples were thawed, vortexed vigorously and sonicated for 10 minutes to ensure complete cell lysis. The resulting suspension was centrifuged at 500×g for 10 minutes and the supernatant fluid was used to determine the intracellular concentrations of gentamicin.
Briefly, gentamicin was extracted from plasma (250 μl) and urine (500 μl) using protein precipitation with an equal volume of ice-cold 90:10 acetonitrile: 0.2% formic acid (v/v). Extracted samples were centrifuged (2° C. at 10,000×g for 10 min) twice. Two-hundred microliters of the supernatants were transferred to polypropylene inserts for injection. The supernatant derived from the lyzed BAL cell pellet was transferred to polypropylene inserts for direct injection without further processing. […] An aliquot of the resultant supernatant was then mixed with an equal volume of ice-cold acetonitrile, centrifuged (2° C. at 10,000×g for 10 minutes) and 200 μl was transferred to polypropylene inserts for injection. Calibration standards were prepared in drug-free foal plasma, BAL fluid or urine and then extracted as described above so that standard curves specific to each biologic matrix could be constructed. […] Analyte separation and LC-MS/MS measurement of gentamicin were performed exactly as described previously (Burton et al. (2013) Equine Vet J. 45, 507-511) except that BAL fluid samples, were introduced in the MS with a flow rate of 0.18 ml/minutes and a total run time of 8 minutes due to relatively low gentamicin concentration in those samples.
Estimation of the volume of PELF was determined by urea dilution method (Rennardet al. (1986) J. Appl. Physiol 60, 532-538).

[1] = 6.6 mg/kg IV q 24 h, 7 doses, day 7

gentamicin sulfate [Free Gentamicin]
AUC0-t in BAL cells [1]: 104.8 ± 35.1 µg·h/mL
Cmax in BAL cells [1]: 6700 ± 1900 ng/mL
Concentration in BAL cells at 24 hours [1]: 3500 ± 1800 ng/mL
Tmax in BAL cells (median) (6.6 mg/kg IV q 24 h, 7 doses, day 7, range 2-24 hours): 6 h
Urine gentamicin (Day 3): 94.8 ± 47.5 µg/mL
Urine gentamicin (Day 7): 87.5 ± 5 µg/mL
accumulation in plasma over 1 week of daily administration (day 1 vs day 7 plasma pharmacokinetic variables): no accumulation
